The experiment has as its system class I/IIb HDAC activity in T47D cells. The experiment can be described thus: cells. The note with it: Homo sapiens, T47D, 48 h, read-out: IC50 Cellular HDAC Assay. It counts as cell-based, human. As for the experimental part: The cellular HDAC assay was performed based on an assay published by Heltweg and Jung and Ciossek et al.. Breast cancer cell line T-47D (12,000 c/w) was seeded in 96-well tissue culture plates (Corning, Kaiserslautern, Germany) in a total volume of 90 µL of culture medium. After 24 h, cells were incubated 48 h with increasing concentrations of a-lipoic acid. The reaction was started by adding 10 µL of 3 mM Boc-Lys(Ac)-AMC (Bachem, Bubensdorf, Switzerland) and again incubated for 3 h under cell culture conditions. […]

As usually defined, the IC50 is the concentration that inhibits the measured activity by half.

For the compound `O=C(CCCCCCC(=O)Nc1ccccc1)NO` [vorinostat], the IC50 came out at 790 ± 70 nM.

Values taken from article PMC11313180 (International Journal of Molecular Sciences, 2024).
